Experimental findings from patent publication US20150004148A1, “METHODS AND COMPOSITIONS FOR INCREASING RNA INTERFERENCE” (DEVGEN N.V., priority 2008, published 2015) are described below.

Type in all cases: in vivo
Data set [1] concerns Colorado potato beetle (Leptinotarsa decemlineata) larvae. Kind of data set: Colorado potato beetle (CPB) larvae bioassay on artificial diet, test solution applied topically to the diet. The procedure: The bioassay was typically performed in an 48-well-plate containing 500 μl of artificial diet per well. Thirty μl of test solution consisting of 5 μl Ld105 (SEQ ID NO 1) dsRNA (starting concentration 10 ng/μl) and 25 μl of dextran sulfate (of varying concentrations in Milli-Q water) was applied topically to the diet and the diet left to dry for about two hours in the laminar flow at room temperature. One 2nd stage CPB larva was placed in each well. Per treatment, 24 insects were tested. The plates were incubated in the insect rearing chamber at 25° C. and ±50% RH, with a photoperiod of 16 hours light/8 hours dark. Mortality was scored over the course of the experiment. The Kaplan-Meier estimator was used to plot the survival curves and the survival curves were compared using the logrank χ^2 test.
In a CPB bioassay (set-up described in Example 1), target Ld105 dsRNA (SEQ ID NO:1) was tested at one quantity (50 ng) in the presence of fucoidan (average Mw±20 kDa; Sigma cat. no. F5631) at different amounts ranging from 50 ng to 50 μg per larva.
In a CPB bioassay (set-up described in Example 1), target Ld105 dsRNA (SEQ ID NO:1) was tested at different amounts ranging from 1 pg to 1 μg in the presence of 50 μg dextran sulfate per larva.
In a CPB bioassay (set-up described in Example 1), target Ld105 dsRNA (SEQ ID NO:1) was tested at one quantity (50 ng) in the presence of heparin (MP Biomedicals cat. no. 194114) at different amounts ranging from 50 ng to 50 μg per larva.
In a CPB bioassay (set-up described in Example 1), target Ld105 dsRNA (SEQ ID NO:1) was tested at one quantity (50 ng per larva) in the presence of 50 μg chondroitin sulfate (Sigma cat. no. C3788) or hyaluronic acid (Sigma cat. no. 53747).
Preparation of the recombinant bacteria is described in the international publication WO 2007/080127 (see pages 55-56).
In one CPB bioassay (set-up described in Example 1), different target dsRNAs (SEQ ID NO:1, 2, 3, 4; Ld105 dsRNA=SEQ ID NO:1, Ld013=SEQ ID NO: 2, Ld009=SEQ ID NO: 3 and Ld248=SEQ ID NO: 4) were tested at one quantity (100 ng) in the presence of dextran sulfate (50 μg).

Data set [2] has the same test system. In words: Alternative CPB bioassay using treated potato leaf discs. The following applies: Example 10; 50 μg dextran sulfate alone on leaf discs.
Data set [3] has the same test system. Kind of data set: CPB sequential feeding assay (priming with dextran sulfate, then dsRNA) on artificial diet. The following applies: Example 11; DS/DS treatment, 50 μg dextran sulfate. The procedure: In one CPB bioassay, target Ld105 dsRNA (SEQ ID NO:1) was tested at one quantity (1 μg) following a short exposure to dextran sulfate only. The bioassay set-up was similar to that described in Example 1, except that the larvae were first fed diet with topically applied dextran sulfate (DS; 50 μg), or water, for two full days before transferring them to fresh diet with topically applied Ld105 dsRNA, dextran sulfate or water only, for the remainder of the assay.

In data set [4] the test system is nematode Caenorhabditis elegans. Kind of data set: C. elegans soaking assay, counting of life stages. As to conditions: Example 13. The procedure: The effects of dextran sulfate on the RNAi-induced phenotypes of a non-insect species, namely, the nematode Caenorhabditis elegans, were tested in a soaking assay. Wild-type worms were chunked from a stock plate and adults were bleached to obtain a well-staged population. The assay was set up in a V-shaped 96-well plate, with each well containing 20 μl of solution comprising 50 ng/μl target rps-14 dsRNA (SEQ ID NO:6), various concentrations of dextran sulfate (0 mg/ml, 0.25 mg/ml, 0.50 mg/ml and 1 mg/ml) and 50 first-larval stage nematodes. Each treatment was performed in triplicate. The plate containing the worms was incubated at 25° C. for overnight soaking After 17 hours, the worms were transferred to 3.5 cm agar-plates seeded with OP50 E. coli and incubated at 20° C. for a further 2 days. After this growing period, the assay was assessed by counting the different life stages for all treatments.

[5] abbreviates: Example 6, heparin or dextran sulfate alone, no dsRNA.
The mark [6] stands for this setting: 50 ng/μl rps-14 dsRNA, alone or plus 1 mg/ml dextran sulfate, 17 hours soaking, then 2 days growing.

For “dextran sulfate [dextran sulfate (±8 kDa)]”, the toxicity to larvae entry in data set [1] (Example 1, dextran sulfate (±8 kDa) alone, 50 ng to 50 μg per larva, no dsRNA) was “Very little or no toxicity”; in data set [1] (Example 4, 50 μg dextran sulfate (±8 kDa) alone), “Very little or no toxicity”; in data set [1] (setting [5]), “Very little or no toxicity”; in data set [2] it was “Very little toxicity”; in data set [3] it was “Very little or no toxicity”. For the same substance, in data set [4] (dextran sulfate alone (data not shown)), the toxicity to nematodes result is listed as “No toxicity”.

As for “dextran sulfate [dextran sulfate (±1400 kDa)]”, in data set [1] (Example 5, dextran sulfate (±1400 kDa) alone, 50 ng to 50 μg per larva), the toxicity to larvae result is “Very little or no toxicity”.

Regarding fucoidan, the toxicity to larvae result in data set [1] (Example 2, fucoidan alone, 50 ng to 50 μg per larva) is “Very little or no toxicity”.

For the substance heparin [reference compound], in data set [1] (setting [5]), the toxicity to larvae entry is recorded as “Very little or no toxicity”.

As to “rps-14 dsRNA: C. elegans target rps-14 double-stranded RNA, SEQ ID NO:6”, in data set [4] (setting [6]), the “number of L3 stage larvae” value was determined as 11%, the “number of L4 stage larvae” value is on record as 19%, the number of adults was 63% and the “number of dead larvae” value came out at 7%.
